# Reference: ChEMBL document CHEMBL4665888, “[1,2,4]Triazolo[1,5-a]pyrimidine Phosphodiesterase 2A Inhibitors: Structure and Free-Energy Perturbation-Guided Exploration” (J Med Chem, 2020)
# Tests used:
# [1] = rat, in vivo, po, 10 mg/kg
# Description: Plasma concentration in Long-Evans rat at 10 mg/kg, po
# [2] = rat, in vivo, po, 10 mg/kg; remark: listed apart in the source
# Description: Drug concentration in Long-Evans rat brain at 10 mg/kg, po
# in vivo = details: Long-Evans, rat, brain/plasma, po, 10 mg/kg
# Description: Ratio of drug concentration in Long-Evans rat brain to plasma at 10 mg/kg, po
# physchem = details: pH 7.4 buffer
# Description: Solubility in pH 7.4 buffer
Compound,Cp [1] [ng/mL],Drug uptake [2] [ng/mL],Kp (in vivo),solubility (physchem) [µM]
C[C@@H]1CCN(C(=O)c2ccc3occc3c2)C[C@H]1c1cc(C(F)F)nc2ncnn12,1640,788,0.5,–
CS(=O)(=O)n1ccc2cc(C(=O)N3CCCC(c4ccnc5ncnn45)C3)ccc21 (racemic),–,–,–,105
